Measured values as given in patent US4748116A, “Peptide substrates for determination of protease activity” (KabiVitrum AB, priority 1980, dated 1988).
Where a name gives a salt, the structure may show the parent alone.

Conditions: pH 8.3

CC(C)C[C@H](NC(=O)[C@@H](NC(=O)OC(C)(C)C)C(C)C)C(=O)N[C@@H](CCCCN)C(=O)Nc1ccc2c(=O)[nH][nH]c(=O)c2c1 [XXI, Boc--Val--Leu--Lys--Isl.HCl]
stability of substrate: very stable
